What all share (format): functional
The subject of assay [1] is Staphylococcus aureus. Briefly: Antibacterial activity against Staphylococcus aureus assessed as bacterial growth inhibition incubated for 24 hrs by CLSI based two serial dilution assay.
For assay [2], the system named is Aspergillus fumigatus. As to the kind of experiment: Antifungal activity against Aspergillus fumigatus assessed as inhibition of fungal growth incubated for 24 hrs by CLSI based two serial dilution assay.
For assay [3], the system named is Candida albicans. Briefly: Antifungal activity against Candida albicans assessed as inhibition of fungal growth incubated for 24 hrs by CLSI based two serial dilution assay.
The test system of assay [4] is Enterococcus faecalis. Briefly: Antibacterial activity against Enterococcus faecalis assessed as bacterial growth inhibition incubated for 24 hrs by CLSI based two serial dilution assay.
The subject of assay [5] is Escherichia coli. As to the kind of experiment: Antibacterial activity against Escherichia coli assessed as bacterial growth inhibition incubated for 24 hrs by CLSI based two serial dilution assay.
For assay [6], the system named is Candida albicans. As to the kind of experiment: Antifungal activity against Candida albicans ATCC 90023 assessed as inhibition of fungal growth incubated for 24 hrs by CLSI based two serial dilution assay.
Assay [7] deals with Candida tropicalis. Briefly: Antifungal activity against Candida tropicalis assessed as inhibition of fungal growth incubated for 24 hrs by CLSI based two serial dilution assay.
Assay [8] deals with Staphylococcus aureus. Briefly: Antibacterial activity against Staphylococcus aureus 25923 assessed as bacterial growth inhibition incubated for 24 hrs by CLSI based two serial dilution assay.
Assay [9] deals with Staphylococcus aureus. Briefly: Antibacterial activity against Staphylococcus aureus 29213 assessed as bacterial growth inhibition incubated for 24 hrs by CLSI based two serial dilution assay.
The test system of assay [10] is Pseudomonas aeruginosa. Briefly: Antibacterial activity against Pseudomonas aeruginosa ATCC 27853 assessed as bacterial growth inhibition incubated for 24 hrs by CLSI based two serial dilution assay.
In assay [11] the test system is Klebsiella pneumoniae. Briefly: Antibacterial activity against Klebsiella pneumoniae assessed as bacterial growth inhibition incubated for 24 hrs by CLSI based two serial dilution assay.
Assay [12] has as its system Acinetobacter baumannii. Briefly: Antibacterial activity against Acinetobacter baumannii assessed as bacterial growth inhibition incubated for 24 hrs by CLSI based two serial dilution assay.
The subject of assay [13] is Candida parapsilosis. Briefly: Antifungal activity against Candida parapsilosis ATCC 22019 assessed as inhibition of fungal growth incubated for 24 hrs by CLSI based two serial dilution assay. The following applies: Lodderomyces parapsilosis.
The test system of assay [14] is Pseudomonas aeruginosa. As to the kind of experiment: Antibacterial activity against Pseudomonas aeruginosa assessed as bacterial growth inhibition incubated for 24 hrs by CLSI based two serial dilution assay.
The subject of assay [15] is Staphylococcus aureus. As to the kind of experiment: Antibacterial activity against methicillin-resistant Staphylococcus aureus assessed as bacterial growth inhibition incubated for 24 hrs by CLSI based two serial dilution assay.
For assay [16], the system named is Escherichia coli. As to the kind of experiment: Antibacterial activity against Escherichia coli 25922 assessed as bacterial growth inhibition incubated for 24 hrs by CLSI based two serial dilution assay.

SMILES strings stand for the structures. ≈ marks a conversion by molar mass, not a printed value.

A word on the MIC: it is the lowest concentration that inhibits growth of the organism. Turning to `O=C1/C(=N\Nc2nccs2)c2ccccc2N1Cc1cccc(Cl)c1`, the MIC in assay [1] was 32 µM (≈ 11.8 µg/mL); in [2], 16 µM (≈ 5.9 µg/mL); in assay [3] it was 256 µM (≈ 94.4 µg/mL); in [4], 32 µM (≈ 11.8 µg/mL); in [5], 128 µM (≈ 47.2 µg/mL); in assay [6] it was 128 µM (≈ 47.2 µg/mL). Further, the MIC in [7] worked out at 64 µM (≈ 23.6 µg/mL); in [8], 8 µM (≈ 2.95 µg/mL); in assay [9] it was 16 µM (≈ 5.9 µg/mL); in assay [10], 512 µM (≈ 189 µg/mL); in assay [11], 256 µM (≈ 94.4 µg/mL); in assay [12], 256 µM (≈ 94.4 µg/mL). The MIC in [13] was 128 µM (≈ 47.2 µg/mL); in assay [14], 256 µM (≈ 94.4 µg/mL); in [15], 16 µM (≈ 5.9 µg/mL); in [16], 256 µM (≈ 94.4 µg/mL).
Consider `CCN1C(=O)/C(=N\Nc2nccs2)c2ccccc21`, for which the MIC in [1] was found to be 64 µM (≈ 17.4 µg/mL); in assay [2] it was 32 µM (≈ 8.71 µg/mL); in assay [3], 64 µM (≈ 17.4 µg/mL); in assay [4], 32 µM (≈ 8.71 µg/mL); in [5], 32 µM (≈ 8.71 µg/mL); in assay [6] it was 128 µM (≈ 34.9 µg/mL). Also, the minimal inhibitory concentration (MIC) in assay [7] came to 64 µM (≈ 17.4 µg/mL); in assay [8], 64 µM (≈ 17.4 µg/mL); in [9], 16 µM (≈ 4.36 µg/mL); in assay [10] it was 512 µM (≈ 139 µg/mL); in assay [11], 64 µM (≈ 17.4 µg/mL); in [12] it was 512 µM (≈ 139 µg/mL). The minimal inhibitory concentration (MIC) in [13] was 64 µM (≈ 17.4 µg/mL); in assay [14], 2 µM (≈ 0.545 µg/mL); in assay [15], 32 µM (≈ 8.71 µg/mL); in assay [16], 64 µM (≈ 17.4 µg/mL).
Regarding `CCCCN1C(=O)/C(=N\Nc2nc(C)c(C(=O)OCC)s2)c2ccccc21`, the MIC in assay [1] is 64 µM (≈ 24.7 µg/mL); in assay [2], 128 µM (≈ 49.5 µg/mL); in assay [3], 512 µM (≈ 198 µg/mL); in [4], 256 µM (≈ 98.9 µg/mL); in [5], 256 µM (≈ 98.9 µg/mL); in assay [6], 512 µM (≈ 198 µg/mL). Also, the minimal inhibitory concentration (MIC) in assay [7] was determined as 128 µM (≈ 49.5 µg/mL); in [8], 512 µM (≈ 198 µg/mL); in [9] it was 64 µM (≈ 24.7 µg/mL); in assay [10], 256 µM (≈ 98.9 µg/mL); in assay [11] it was 256 µM (≈ 98.9 µg/mL); in assay [12], 128 µM (≈ 49.5 µg/mL). For the same compound, the MIC in [13] turned out to be 256 µM (≈ 98.9 µg/mL); in [14] it was 1 µM (≈ 0.386 µg/mL); in [15], 128 µM (≈ 49.5 µg/mL); in assay [16], 128 µM (≈ 49.5 µg/mL).
For `CCCCN1C(=O)/C(=N\Nc2nccs2)c2cc([N+](=O)[O-])ccc21`, the minimum inhibitory concentration (MIC) in [1], in assay [2], in assay [3], in assay [4], in assay [5] and in assay [6] was 512 µM (≈ 177 µg/mL) throughout. For the same compound, the minimal inhibitory concentration (MIC) turned out to be 512 µM (≈ 177 µg/mL) in assay [7]; 512 µM (≈ 177 µg/mL) in assay [8]; 512 µM (≈ 177 µg/mL) in assay [9]; 512 µM (≈ 177 µg/mL) in assay [10]; 512 µM (≈ 177 µg/mL) in assay [11]; 0.5 µM (≈ 0.173 µg/mL) in assay [12]. Further, the MIC in [13], in [14], in [15] and in assay [16] was 512 µM (≈ 177 µg/mL) in each case.
For `O=C1/C(=N\Nc2nccs2)c2ccccc2N1Cc1ccc(Cl)cc1`, the MIC is 4 µM (≈ 1.48 µg/mL) in [1]; 16 µM (≈ 5.9 µg/mL) in assay [2]; 16 µM (≈ 5.9 µg/mL) in assay [3]; 64 µM (≈ 23.6 µg/mL) in assay [4]; 128 µM (≈ 47.2 µg/mL) in assay [5]; 32 µM (≈ 11.8 µg/mL) in assay [6]. For the same compound, the MIC in [7] was 16 µM (≈ 5.9 µg/mL); in assay [8], 4 µM (≈ 1.48 µg/mL); in [9], 4 µM (≈ 1.48 µg/mL); in [10], 128 µM (≈ 47.2 µg/mL); in [11], 32 µM (≈ 11.8 µg/mL); in assay [12], 64 µM (≈ 23.6 µg/mL). Besides, the MIC turned out to be 4 µM (≈ 1.48 µg/mL) in assay [13], 16 µM (≈ 5.9 µg/mL) in assay [14], 64 µM (≈ 23.6 µg/mL) in assay [15] and 32 µM (≈ 11.8 µg/mL) in assay [16].
For the compound `O=C1Nc2ccccc2/C1=N/Nc1nccs1`, the MIC in assay [1] is 512 µM (≈ 125 µg/mL); in [2], 32 µM (≈ 7.82 µg/mL); in [3], 256 µM (≈ 62.5 µg/mL); in [4], 128 µM (≈ 31.3 µg/mL); in [5], 256 µM (≈ 62.5 µg/mL); in assay [6] it was 128 µM (≈ 31.3 µg/mL). In addition, the minimal inhibitory concentration (MIC) in assay [7] amounted to 256 µM (≈ 62.5 µg/mL); in [8], 128 µM (≈ 31.3 µg/mL); in assay [9], 128 µM (≈ 31.3 µg/mL); in assay [10], 128 µM (≈ 31.3 µg/mL); in assay [11], 512 µM (≈ 125 µg/mL); in assay [12], 64 µM (≈ 15.6 µg/mL). Further, the minimum inhibitory concentration (MIC) in assay [13] was 64 µM (≈ 15.6 µg/mL); in assay [14] it was 512 µM (≈ 125 µg/mL); in [15], 128 µM (≈ 31.3 µg/mL); in [16] it was 128 µM (≈ 31.3 µg/mL).

The record behind these values is ChEMBL document CHEMBL5370535, “Thiazolyl hydrazineylidenyl indolones as unique potential multitargeting broad-spectrum antimicrobial agents” (Eur J Med Chem, 2023).
